According to patent US20180087079A1, “METHODS OF USING CELL-CYCLE INHIBITORS TO MODULATE ONE OR MORE PROPERTIES OF A CELL CULTURE” (AMGEN INC., priority 2013, published 2018):
Values belong to the molecule of their own block, whether it stands above or below them.

Columns and labels:
[1] = test system: transfected CHO cells expressing recombinant human monoclonal antibody (cell line 1); experiment: 24-deep well culture, cell line 1: VCD, viability, titer, qP; format: cell-based, Chinese hamster; conditions: for Titer / VCD / Viability / qP: Cell Line 1
Procedure: (§1) Transfected CHO cells expressing a recombinant human monoclonal antibody (mAb) are cultured in 24-deep well plates with seeding density at 1×10^7/mL for five days. At certain time periods, samples of the cultures are taken and evaluated for viable cell density (VCD; expressed in 10^6 cells/mL); percent viability (as determined by trypan blue exclusion); titer of recombinant protein (expressed in grams of protein per liter of culture, or g/L, as determined by Protein A affinity HPLC); qP, or specific productivity (expressed in picograms of recombinant protein per cell per day, or pg/c/d), the presence or absence of high molecular weight substances (usually an indicator of protein aggregation; expressed as % of the total protein); and the relative percentage of Mannose 5, a major intermediate glyco-form that attaches to N297 of the mAb. N-linked glycosylation has an impact on the tertiary structure of the antibody and may affect Fc mediated antibody effector functions. The majority of the human Fc glycans are complex biantennary structures with galactose as the prevalent terminal sugar. Immature glyco-forms, such as high-mannose glycol-forms (Man5-9), are of concern due to potential higher plasma clearance rate (as compared to the clearance rate of complex glycan linked mAbs).
(§2) Compounds are further evaluated essentially as described in Example 2 herein. Briefly, transfected CHO cells expressing recombinant human monoclonal antibody (mAb; two different cell lines expressing two different mAb, referred to as cell line 1 and cell line 2) are cultured in 24-deep well plates in the presence or absence of the compounds. At specified time points, samples of the cultures are taken and evaluated for viable cell density (VCD; expressed in 10^6 cells/mL); percent viability (as determined by any method known in the art); titer of recombinant protein (expressed in grams of protein per liter of culture, or g/L, as determined by Protein A affinity HPLC); qP, or specific productivity (expressed in picograms of recombinant protein per cell per day, or pg/c/d). Additional parameters measure include the presence or absence of high molecular weight substances (usually an indicator of protein aggregation; expressed as % of the total protein); and the relative percentage of Mannose 5. For comparison purposes, Compounds A and B, which had been previously tested, were tested again.

Colo205 = experiment: [14C]-thymidine incorporation cell proliferation inhibition assay; format: cell-based; conditions: Homo sapiens, COLO 205, 72 hour incubation
Procedure: The cell proliferation inhibition potency of the cell cycle inhibitors was determined by using a [^14C]-thymidine incorporation assay. Exponentially growing cells (Colo205) were seeded in a 96-well Cytostar T plate (GE Healthcare Biosciences) at a density of 5×10^3 cells/well and incubated overnight. Serially diluted compounds and 0.1 μCi of [^14C]-thymidine (GE Healthcare Biosciences) were added to each well on the following day. After 72 hour incubation, isotope incorporation was determined with a β plate counter (Wallac). IC50 values of the compounds in the above assays were determined by non-linear regression analysis using Prism (GraphPad Software).

CDK4/Cyclin D1 = target: T1, CDK4/Cyclin D1 (Homo sapiens, UniProt P11802); experiment: CDK4 filtration kinase assay; format: biochemical; conditions: CDK4/Cyclin D1, Rb fragment substrate, [33P]-ATP
T1 construct: purchased Cell Signaling Technology
Procedure: The CDK4 inhibitory activity of the cell cycle inhibitors was determined with a filtration kinase assay. The compounds, kinase and substrate diluted in the kinase buffer (20 mM Tris, pH7.4, 50 mM NaCl, 1 mM DTT, 0.1% BSA) were sequentially added to a 96-well Multiscreen HTS filtration plate (Millipore). The final 100 μL reaction mixture in each well contained 0.3 μg of CDK4/Cyclin D1 (Cell Signaling Technology), 1 μg of Rb fragment (aa773-928, Millipore) for the CDK4 assay and 1 μCi of [^33P]-ATP. The mixture was incubated at room temperature for 1 hour. The proteins in the reaction were then precipitated and washed with cold TCA solution using an aspiration/filtration vacuum system. The plates were dried at room temperature, and the retained radioactivity was measured by scintillation counting. IC50 values of the compounds in the above assays were determined by non-linear regression analysis using Prism (GraphPad Software).

[2] = test system: transfected CHO cells expressing recombinant human monoclonal antibody (cell line 2); experiment: 24-deep well culture, cell line 2: VCD, viability, titer, qP; format: cell-based, Chinese hamster
Procedure: as §1, §2

T1 sequence (P11802 whole entry, species assumed, the tested form may be a part): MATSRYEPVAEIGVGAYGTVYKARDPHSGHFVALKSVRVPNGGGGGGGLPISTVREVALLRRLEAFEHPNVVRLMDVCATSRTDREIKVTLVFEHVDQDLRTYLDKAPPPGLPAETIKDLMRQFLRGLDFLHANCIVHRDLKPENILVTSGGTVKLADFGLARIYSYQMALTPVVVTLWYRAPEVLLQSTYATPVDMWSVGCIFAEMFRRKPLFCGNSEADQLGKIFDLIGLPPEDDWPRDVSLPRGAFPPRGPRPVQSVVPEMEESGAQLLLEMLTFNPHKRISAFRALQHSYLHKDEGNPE
T1 sequence (P24385 whole entry partner, species assumed, the tested form may be a part): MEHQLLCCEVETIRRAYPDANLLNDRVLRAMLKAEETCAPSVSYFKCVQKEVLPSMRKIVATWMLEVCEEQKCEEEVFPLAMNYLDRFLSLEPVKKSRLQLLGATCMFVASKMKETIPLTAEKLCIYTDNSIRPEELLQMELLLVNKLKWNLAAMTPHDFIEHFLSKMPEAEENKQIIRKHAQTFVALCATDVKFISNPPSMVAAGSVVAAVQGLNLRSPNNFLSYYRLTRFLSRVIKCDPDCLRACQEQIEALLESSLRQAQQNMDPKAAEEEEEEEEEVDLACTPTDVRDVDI

IC50 (Colo205): 34.7 nM
IC50 (CDK4/Cyclin D1): 33.5 nM
SMILES: CN(C)C1CCN(c2ccc(Nc3ncc4c(n3)C3(C=CC(C)(C)CC3)c3cnccc3-4)cn2)CC1 (stereo not shown) [Compound F, N-(6-(4-(dimethylamino)piperidin-1-yl)pyridin-3-yl)-4,4-dimethylspiro[cyclohex[2]ene-1,9′-pyrido[4′,3′:3,4]cyclopenta[1,2-d]pyrimidin]-2′-amine]
Titer ([1]; 1.2 microM, D 1): 0.49 g/L
VCD ([1]; 1.2 microM, D 1): 11.56 e6/mL
Viability ([1]; 1.2 microM, D 1): 96.84%
qP ([1]; 1.2 microM, D 1): 42.39 pg/c/d
Titer ([1]; 1.2 microM, D 2): 0.73 g/L
VCD ([1]; 1.2 microM, D 2): 10.80 e6/mL
Viability ([1]; 1.2 microM, D 2): 90.23%
qP ([1]; 1.2 microM, D 2): 67.31 pg/c/d
Titer ([1]; 1.2 microM, D 3): 0.96 g/L
VCD ([1]; 1.2 microM, D 3): 11.96 e6/mL
Viability ([1]; 1.2 microM, D 3): 89.40%
qP ([1]; 1.2 microM, D 3): 80.01 pg/c/d
Titer ([1]; 1.2 microM, D 4): 1.13 g/L
VCD ([1]; 1.2 microM, D 4): 14.70 e6/mL
Viability ([1]; 1.2 microM, D 4): 88.76%
qP ([1]; 1.2 microM, D 4): 77.09 pg/c/d
Titer ([1]; 2.4 microM, D 1): 0.50 g/L
VCD ([1]; 2.4 microM, D 1): 11.16 e6/mL
Viability ([1]; 2.4 microM, D 1): 95.96%
qP ([1]; 2.4 microM, D 1): 44.50 pg/c/d
Titer ([1]; 2.4 microM, D 2): 0.75 g/L
VCD ([1]; 2.4 microM, D 2): 10.01 e6/mL
Viability ([1]; 2.4 microM, D 2): 89.97%
qP ([1]; 2.4 microM, D 2): 75.27 pg/c/d
Titer ([1]; 2.4 microM, D 3): 0.97 g/L
VCD ([1]; 2.4 microM, D 3): 10.33 e6/mL
Viability ([1]; 2.4 microM, D 3): 88.89%
qP ([1]; 2.4 microM, D 3): 93.88 pg/c/d
Titer ([1]; 2.4 microM, D 4): 1.18 g/L
VCD ([1]; 2.4 microM, D 4): 12.84 e6/mL
Viability ([1]; 2.4 microM, D 4): 86.16%
qP ([1]; 2.4 microM, D 4): 91.87 pg/c/d
effect on viability ([1]; summary of Table 2): minimal effects on viability
growth arrest ([1]; summary of Table 2): reasonably sustained growth arrest

IC50 (Colo205): 23.5 nM
IC50 (CDK4/Cyclin D1): 1.4 nM
SMILES: CN(C)C1CCN(c2ccc(Nc3ncc4c(n3)C3(C=CC(C)(C)CC3)c3cnccc3-4)nc2)CC1 (stereo not shown) [Compound L, N-(5-(4-(dimethylamino)piperidin-1-yl)pyridin-2-yl)-4,4-dimethylspiro[cyclohex[2]ene-1,9′-pyrido[4′,3′:3,4]cyclopenta[1,2-d]pyrimidin]-2′-amine]
Titer ([2]; 1.2 microM, D 1): 0.28 g/L
VCD ([2]; 1.2 microM, D 1): 11.76 e6/mL
Viability ([2]; 1.2 microM, D 1): 94.88%
qP ([2]; 1.2 microM, D 1): 23.81 pg/c/d
Titer ([2]; 1.2 microM, D 2): 0.49 g/L
VCD ([2]; 1.2 microM, D 2): 13.63 e6/mL
Viability ([2]; 1.2 microM, D 2): 92.63%
qP ([2]; 1.2 microM, D 2): 35.94 pg/c/d
Titer ([2]; 1.2 microM, D 3): 0.58 g/L
VCD ([2]; 1.2 microM, D 3): 18.56 e6/mL
Viability ([2]; 1.2 microM, D 3): 92.09%
qP ([2]; 1.2 microM, D 3): 31.42 pg/c/d
Titer ([2]; 1.2 microM, D 4): 0.70 g/L
VCD ([2]; 1.2 microM, D 4): 26.40 e6/mL
Viability ([2]; 1.2 microM, D 4): 91.17%
qP ([2]; 1.2 microM, D 4): 26.64 pg/c/d
Titer ([2]; 2.4 microM, D 1): 0.28 g/L
VCD ([2]; 2.4 microM, D 1): 11.43 e6/mL
Viability ([2]; 2.4 microM, D 1): 94.24%
qP ([2]; 2.4 microM, D 1): 24.20 pg/c/d
Titer ([2]; 2.4 microM, D 2): 0.47 g/L
VCD ([2]; 2.4 microM, D 2): 12.95 e6/mL
Viability ([2]; 2.4 microM, D 2): 91.47%
qP ([2]; 2.4 microM, D 2): 36.29 pg/c/d
Titer ([2]; 2.4 microM, D 3): 0.60 g/L
VCD ([2]; 2.4 microM, D 3): 16.19 e6/mL
Viability ([2]; 2.4 microM, D 3): 90.68%
qP ([2]; 2.4 microM, D 3): 37.05 pg/c/d
Titer ([2]; 2.4 microM, D 4): 0.76 g/L
VCD ([2]; 2.4 microM, D 4): 24.27 e6/mL
Viability ([2]; 2.4 microM, D 4): 91.43%
qP ([2]; 2.4 microM, D 4): 31.18 pg/c/d
